In general, logD refers to the decadic logarithm of the distribution of all forms, ionised or not, between an organic phase and buffer at a given pH. Low values mean a more hydrophilic compound, high ones a more lipophilic compound.

A short description of this series: method code SF-GLC, from DOI: 10.1002/qsar.19850040403. Conditions: pH 13.0.
With `CCN(C)C`, the logD was 0.7.

In turn, `CCNC` showed a logD of 0.15.

Consider `NCC(F)(F)F`, for which the logD was 0.24.

As to `CCCNC(C)CC` (centres undefined), the logD was found to be 1.91.

`CCCCC(CC)CN` (centres undefined): the pH-dependent lipophilicity (logD) worked out at 2.82.

The molecule `CC(C)N` showed a logD of 0.26.

On to `CCCN(C)CC(F)(F)F`, for which the logD came to 2.18.

Consider `C=CCNCC`, for which the logD came out at 0.81.

The molecule `CCCNCC(C)C` displayed a logD of 2.07.

The molecule `C1CCNC1` returned a logD of 0.46.

Take `CCCCNCCC`: the logD came to 2.12.

Turning to `CCCN(CC)CC(F)(F)F`, the logD amounted to 2.38.

Consider `CN(C)CC(F)(F)F`, for which the logD was 1.06.

As for `CCCN(CCC)CCC`, the logD worked out at 2.79.

As for `CCNCC(F)(F)F`, the logD was 0.74.

`CCCCCN`: the logD was determined as 1.49.

Take `CC(C)CN`: the logD worked out at 0.73.

Take `CCN(CC)CC(F)(F)F`: the logD was 1.88.

`CCCCCCCN`: the log distribution coefficient (logD) was found to be 2.57.

For `C1CN2CCC1CC2`, the logD stood at 1.38.

`CNCC(F)(F)F` yielded a logD of 0.55.

Regarding `CCNC(C)C`, the logD was 0.93.

Regarding `C=CCNCCC`, the logD worked out at 1.33.

In the case of `CCCN(CC)CCC`, the logD amounted to 2.68.

These data come from the SangsterLogP compilation.
